Laboratory results reported in patent publication US20100249138A1, “MPZP: A SMALL MOLECULE CORTICOTROPIN-RELEASING FACTOR TYPE 1 RECEPTOR (CRF1) ANTOGONIST” (priority 2007, published 2010).

Molecular target: T1, CRF1 receptors (Rattus norvegicus, UniProt P35353)
T1 sequence (P35353 24-415): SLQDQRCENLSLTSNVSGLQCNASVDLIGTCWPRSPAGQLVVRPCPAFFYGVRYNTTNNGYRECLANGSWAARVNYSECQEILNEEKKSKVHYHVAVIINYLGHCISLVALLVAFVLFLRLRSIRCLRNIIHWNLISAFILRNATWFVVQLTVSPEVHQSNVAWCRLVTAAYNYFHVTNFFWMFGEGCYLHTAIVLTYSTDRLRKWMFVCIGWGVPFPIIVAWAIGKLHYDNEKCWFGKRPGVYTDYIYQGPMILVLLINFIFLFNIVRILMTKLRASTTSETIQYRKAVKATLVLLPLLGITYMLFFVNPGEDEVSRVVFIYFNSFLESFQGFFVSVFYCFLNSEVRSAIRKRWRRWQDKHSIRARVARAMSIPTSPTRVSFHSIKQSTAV
Assay: [125I]-Tyr0-sauvagine competition binding, rat cerebellar membrane homogenates
Set-up: from tissue; host or cells: rat cerebellum, membrane homogenate
Conditions: read-out: IC50, displacement of specific [125I]-Tyr0-sauvagine binding
Method: Binding activity of MPZP was determined in a competition assay using […] (2200 Ci/mmol; Perkin Elmer, Waltham, Mass.) as the radioligand. Cerebellum was homogenized in homogenizing buffer (Dulbecco's phosphate-buffered saline [PBS]:1.5 mM KH2PO4, 8.1 mM Na2HPO4, 2.7 mM KCl, 138 mM NaCl, pH 7.2, supplemented with 10 mM MgCl2, 2 mM EGTA) using a Polytron (Dispersing and Mixing Technology, Kinematica, Littau-Lucerne, Switzerland) at setting 6 for 2×15 seconds on ice. The homogenate was centrifuged at 45,000×g for 20 minutes at 4° C. The pellet was resuspended and spun at 45,000×g for 20 minutes at 4° C. The final pellet was resuspended in assay buffer (homogenizing buffer supplemented with protease inhibitor; 1 tablet/10 ml; Sigma CAT#58829-20TAB, St. Louis, Mo., pH 7.4) using a Polytron.
Med. Chem. (2000) 8:181-189], whose structural formula is shown below.
Total binding was determined using assay buffer in lieu of a CRF1 antagonist, and nonspecific binding was determined in the presence of 1 μM unlabeled sauvagine. The final radioligand concentration was 0.2 nM, and the reaction was incubated at room temperature for 2 hours. […] The pellet-containing tip was cut off and counted in an automated 10-detector gamma counter (MicroMedic Apex, ICN Biomedical, Costa Mesa, Calif.) at 80% efficiency. […]

## COCCN(CCOC)c1cc(C)nc2c(-c3ccc(OC)cc3C)c(C)nn12 [MPZP, N,N-bis(2-methoxyethyl)-3-(4-methoxy-2-methylphenyl)-2,5-dimethyl-pyrazolo[1,5-a]pyrimidin-7-amine]
  IC50: 6.1 nM
